In US9458194B2, “Compounds useful in the treatment and/or care of the skin and their cosmetic or pharmaceutical compositions” (Lubrizol Advanced Materials, Inc., priority 2013, dated 2016):
“And” between values parts separate entries of the source, which are not always exact repeats. Equal entries are not always repeated.

Key:
Type in all cases: cell-based
fibulin-5 = assay: Immunofluorescence of fibulin-5 protein expression in human dermal fibroblasts; settings: 0.5 mg/mL, 48 hours, HDFa
Experimental: In this experiment the number of times that the expression of the proteins fibulin-5 and LOXL1 in human dermal fibroblasts is increased with regard to the basal levels in untreated cells (negative control) when treating the cells with 0.5 mg/ml of the product Ac-L-Asp-L-Val-L-Lys-L-Tyr-OH and it is compared with the effect of Interleukin-1β (IL-1β) at 20 ng/ml and TGF-β at 5 ng/ml (positive controls), which increase an average of 1.5 times and 2 times, respectively, the expression of these proteins, in the same conditions.
Adult human dermal fibroblasts were seeded (HDFa) (2.5×10^3 cells/well) in a 96-well transparent plate, treated with polylysine, and were incubated in complete medium 106 for 72 hours at 37° C. in an atmosphere with 5% CO2. After the incubation, the cells were treated with the different compounds in complete medium 106 for 48 hours at 37° C. in an atmosphere with 5% CO2. As positive controls of increase of the expression of the proteins fibulin-5 and LOXL1, 5 ng/ml of TGF-β and 20 ng/ml of IL-1β were used and as a negative control untreated cells were used, just with complete medium 106. The incubations and the treatments were carried out in quadruplicate for each condition. After the treatment, the levels of expression of both proteins were quantified relatively by using specific fluorescent antibodies, photographic recording by microscopy and subsequent quantification of the fluorescent signal using image processing software, the number of total cells by fluorescent staining of the nuclei (DAPI) and subsequent quantification in the same images. For the determination of the expression of the proteins fibulin-5 and LOXL1 the cells were washed with PBS 48 hours after the treatments and were fixed with paraformaldehyde. Next, duplicates of each treatment were used to mark separately the fibulin-5 and LOXL1 proteins. For each of the proteins a specific primary monoclonal antibody was used (Abcam). After the primary incubation, the cells were washed with PBS and the secondary marking was carried out with specific fluorescent polyclonal antibodies for each primary antibody. For fibulin-5 an Alexa Fluor® 594 (red) secondary antibody was used and for LOXL1 an Alexa Fluor® 488 (green) secondary antibody was used. 16 hours later all the samples were stained with DAPI (4′,6-Diamidino-2-Phenylindole), fluorescent marker for the staining of nuclei, and the photographic recording was carried out by fluorescence microscopy in a Leica microscope. 2-4 images were taken per condition and per protein and the fluorescent signals were quantified (IOD) corresponding to each protein and the nuclei by means of image analysis software. The fibulin-5 and LOXL1 signals were normalized according to the number of total nuclei for each image. 3 independent assays were carried out.

[1] = tested on: human fibulin-5 gene promoter; assay: Luminescence assay of human fibulin-5 gene promoter activation (Firefly luciferase); settings: 16-24 hours
Experimental: (§1) The effect of the compounds of the invention on the activity of the fibulin-5 and LOXL1 promoters was studied and compared to the levels of basal expression of the untreated cells (negative control) and with the effect of Interleukin-1β (IL-1β) in the same conditions.
(§2) Cells from an epithelial cell line doubly transfected with fibulin-5 and LOXL1 human promoters in which the luciferase gene is under the regulatory control of said promoters (4×10^4 cells/well) were seeded in a white plate and in a 96-well transparent plate, both treated with polylysine, and were incubated in Dulbecco's Modified Eagle Medium (DMEM-Glutamax™), with 10% of FBS, 1% Penicillin-Streptomycin (P/S), 1 mg/ml of Geneticin® (G418) and […] at 37° C. in at atmosphere with 5% CO2. After the incubation, the cells were incubated for 6 hours at 37° C. in at atmosphere with 5% CO2 with DMEM without serum. Then, this medium was removed and the cells were treated with different compounds at 0.1 mg/ml, 0.5 mg/ml, 1 mg/ml or 2 mg/mL in DMEM/1% FBS for 16-24 hours. As a positive control to activate the fibulin-5 and LOXL1 promoters 10 ng/ml of IL-1β were used and as a negative control untreated cells were used, just with DMEM/1% FBS. The incubations and treatments were carried out in parallel in the white plate and the transparent plate and in triplicate for each condition. After the treatment, the relative light units per second were determined (RLU/s) in the white plate by means of consecutive quantification of the activities of Firefly luciferase (fibulin-5 promoter) and Renilla luciferase (LOXL1 promoter), and the number of total cells/well in the transparent plate by means of staining with Crystal Violet (CV). To determine the Firefly and Renilla luciferase activities the Dual-Glo Luciferase Assay System kit by Promega was used. The cells were briefly lysed and the Firefly luciferase substrate was added. After incubating for 10 min at 25° C., the RLU/s were quantified by luminescence reader (Lumistar-BMG). Then the Firefly signal was extinguished and the Renilla luciferase substrate was added. After incubating for 5 min at 25° C., the RLU/s were quantified by the same luminescence reader. With regard to the determination of the total number of cells by Crystal Violet, the CV dyes the DNA of the cells and the quantity of dye taken by the cells can be measured in an absorbency reader at 630 nm (Multiskan Ascent). The color obtained is directly proportional to the total number of cells per well. The cells were briefly incubated with 0.05% CV plus 4% Formalin for 20 minutes and after several washes with Milli-Q water, the cells were left to dry for 1-2 hours and then 0.1 M of HCl was added for its immediate reading. The RLU/s of the luciferases corresponding to each promoter were normalized by the average of the total number of cells per condition. Three independent assays with 3 measurements per assay were carried out for Ac-L-Asp-L-Val-L-Lys-L-Tyr-OH at 0.1 mg/mL and 1 mg/mL. 1 assay with 3 measurements was carried out for the other compounds and concentrations.
(§3) The increase in the activity of the promoters with regard to the levels of expression of the negative control was determined.

[2] = tested on: human LOXL1 gene promoter; assay: Luminescence assay of human LOXL1 gene promoter activation (Renilla luciferase); settings: 16-24 hours
Experimental: as §1, §2, §3

Increase in the activity of the human promoter of the FIBULIN 5 gene with regard to the negative control ([1]; 0.1 mg/mL): 7.46%
Increase in the activity of the human promoter of the FIBULIN 5 gene with regard to the negative control ([1]; 1 mg/mL): 19% and 19.40%
Increase in the activity of the human promoter of the FIBULIN 5 gene with regard to the negative control ([1]; 2 mg/mL): 53.20%
Increase in the activity of the human promoter of the LOXL1 gene with regard to the negative control ([2]; 0.1 mg/mL): 7.12%
Increase in the activity of the human promoter of the LOXL1 gene with regard to the negative control ([2]; 1 mg/mL): 27% and 27.06%
Increase in the activity of the human promoter of the LOXL1 gene with regard to the negative control ([2]; 2 mg/mL): 10.41%
Substance: Ac-L-Asp-L-Val-L-Lys-L-Tyr-OH (Ac-DVKY-OH)
Increase in the expression of the protein fibulin-5 with regard to the negative control (fibulin-5): 134% and 133.90%
